Read-outs that look alike come from different tables or passages of the source.
Assays:
Mer = molecular target: T1, Mer (Homo sapiens, UniProt Q12866); assay: Mer kinase inhibition IC50; type: biochemical
T1 sequence (Q12866 21-999): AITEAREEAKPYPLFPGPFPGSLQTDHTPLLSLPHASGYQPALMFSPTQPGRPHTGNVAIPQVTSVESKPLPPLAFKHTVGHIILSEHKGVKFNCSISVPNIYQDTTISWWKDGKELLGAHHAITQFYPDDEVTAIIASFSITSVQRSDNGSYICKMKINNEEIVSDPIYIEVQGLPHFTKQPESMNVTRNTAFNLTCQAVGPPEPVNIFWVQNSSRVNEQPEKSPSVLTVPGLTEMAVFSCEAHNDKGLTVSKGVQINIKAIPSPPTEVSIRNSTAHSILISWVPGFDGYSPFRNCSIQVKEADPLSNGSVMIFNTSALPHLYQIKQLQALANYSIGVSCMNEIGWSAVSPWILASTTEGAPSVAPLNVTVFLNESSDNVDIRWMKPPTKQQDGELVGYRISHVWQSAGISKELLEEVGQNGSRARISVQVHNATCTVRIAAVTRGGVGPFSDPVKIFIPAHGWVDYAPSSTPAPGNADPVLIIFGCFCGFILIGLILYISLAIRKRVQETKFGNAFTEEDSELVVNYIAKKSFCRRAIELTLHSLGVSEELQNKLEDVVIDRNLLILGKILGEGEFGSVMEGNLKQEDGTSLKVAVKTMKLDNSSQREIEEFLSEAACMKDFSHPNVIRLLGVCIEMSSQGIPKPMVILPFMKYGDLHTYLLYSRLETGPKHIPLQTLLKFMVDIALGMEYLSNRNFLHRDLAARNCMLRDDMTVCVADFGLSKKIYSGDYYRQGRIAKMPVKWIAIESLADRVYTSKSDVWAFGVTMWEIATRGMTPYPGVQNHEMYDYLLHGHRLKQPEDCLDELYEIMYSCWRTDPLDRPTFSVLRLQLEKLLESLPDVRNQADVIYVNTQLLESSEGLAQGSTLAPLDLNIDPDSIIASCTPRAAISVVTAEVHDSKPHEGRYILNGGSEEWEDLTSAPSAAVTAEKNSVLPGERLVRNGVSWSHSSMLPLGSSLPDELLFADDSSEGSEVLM

MDA-MB-231 cells = assay: Invasion of MDA-MB-231 multicellular tumor spheroids in 3D collagen matrix; type: cell-based; conditions: MDA-MB-231 spheroids, 24 hours in collagen culture; in comparison to UNC1653, UNC2025, UNC2250
Description: The invasion of triple negative highly aggressive breast adenocarcinoma cells (MDA-MB-231) cultured as multicellular tumor spheroids (MTSs) in a 3D collagen matrix was examined.

IC50 (Mer; Example 6, read-out: MerTK IC50): 0.98 nM
IC50 (Mer; Table 1, read-out: Mer IC50): < 10 nM
Compound: O[C@H]1CC[C@H](Nc2nc(Nc3ccccc3)ncc2-c2ccc(CN3CCCC3)cn2)CC1 [UNC4198A]
levels of invasion (MDA-MB-231 cells): decreased levels of invasion
